{"source": "patent US20040209933A1", "about": "“Oxazole derivatives” (priority 2003, published 2004)", "key": {"QG56 cells": {"tested_on": "QG56 cells", "experiment": "BrdU/Hoechst quenching assay, cell kinetic FACS analysis (G1 cell cycle arrest)", "type": "cell-based", "conditions": "incubation for 24 h; for percentage of QG56 cells arrested in the first G1 phase, compared with reference compound: 3 μM; for n-fold increase of cells arrested in first cell cycle: compound concentration 3 μM, QG56 squamous cell carcinoma cells, Control (DMSO) = 1", "protocol": "A squamous cell carcinoma cell line (e.g. QG 56) was cultivated in DMEM/10%FCS/2 mM glutamine at about 60% confluency. Exponentially growing cells were seeded at a density of 1×10^4 cells/cm^2 in 2 ml of medium per 6 wells. After 24 hours medium was replaced and compounds were added.\nFor the BrdU/Hoechst quenching assay the media were supplemented with […] and deoxycytidine, respectively. All experiments were performed in 6 well culture plates.\nThe cell culture setup is as described above. All compounds were dissolved in DMSO at a concentration of 10 mM.\nAdherent cells were harvested at 24 h by trypsinization and cells from the supernatant were added to the population.\nAfter centrifugation cell pellets were resuspended at 1-10×10^5 cells/ml in DNA-staining puffer (100 mM Tris pH 7.4, 154 mM NaCl, 1 mM CaCl2, 0.5 mM MgCl2, 0.2% BSA, 0.1% NP40) supplemented with 5 ug/ml RNAse A and 1.5 ug/ml Hoechst 33258. After 15 min propidium iodide was added to a final concentration of 1.5 ug/ml for another 15 min. The fluorochrome labeled cells were analysed on a flow cytometer (BD LSR) applying dual laser excitation (UV and 488 nm).\nCompounds of Example 1, Example 2 and Example 4 were tested at a concentration of 3 μM."}}, "data": [{"smiles": "C(=Cc1nc(COc2ccc(CCCCn3ccnn3)cc2)co1)c1ccc2c(c1)OCO2", "note": "[Example 4, 1-(4-{4-[2-(2-Benzo[1,3]dioxol-5-yl-vinyl)-oxazol-4-ylmethoxy]-phenyl}-butyl)-1H-[1,2,3]triazole]", "values": [{"measurement": "percentage of QG56 cells arrested in the first G1 phase, compared with reference compound", "setting": "QG56 cells", "result": "higher percentage"}, {"measurement": "n-fold increase of cells arrested in first cell cycle", "setting": "QG56 cells", "result": 17.9, "unit": "n-fold"}]}, {"smiles": "COc1ccc(C=Cc2nc(COc3ccc(CCCCn4ccnn4)cc3)co2)cc1", "note": "[Example 1, 1-[4-(4-{2-[2-(4-Methoxy-phenyl)-vinyl]-oxazol-4-ylmethoxy}-phenyl)-butyl]-1H-[1,2,3]triazole]", "values": [{"measurement": "percentage of QG56 cells arrested in the first G1 phase, compared with reference compound", "setting": "QG56 cells", "result": "higher percentage"}, {"measurement": "n-fold increase of cells arrested in first cell cycle", "setting": "QG56 cells", "result": 23.7, "unit": "n-fold"}, {"measurement": "melting point", "result": "148 to 151", "unit": "°C"}]}, {"smiles": "FC(F)(F)Sc1ccc(C=Cc2nc(COc3ccc(CCCCn4ccnn4)cc3)co2)cc1", "note": "[Example 5, 1-[4-(4-{2-[2-(4-Trifluoromethylsulfanyl-phenyl)-vinyl]-oxazol-4-ylmethoxy}-phenyl)-butyl]-1H-[1,2,3]triazole]", "values": [{"measurement": "melting point", "result": "144 to 145", "unit": "°C"}]}, {"smiles": "FC(F)(F)Oc1ccc(C=Cc2nc(COc3ccc(CCCCn4ccnn4)cc3)co2)cc1", "note": "[Example 2, 1-[4-(4-{2-[2-(4-Trifluoromethoxy-phenyl)-vinyl]-oxazol-4-ylmethoxy}-phenyl)-butyl]-1H-[1,2,3]triazole]", "values": [{"measurement": "percentage of QG56 cells arrested in the first G1 phase, compared with reference compound", "setting": "QG56 cells", "result": "higher percentage"}, {"measurement": "n-fold increase of cells arrested in first cell cycle", "setting": "QG56 cells", "result": 19.2, "unit": "n-fold"}, {"measurement": "melting point", "result": "138 to 140", "unit": "°C"}]}, {"smiles": "FC(F)(F)c1ccc(C=Cc2nc(COc3ccc(CCCCn4ccnn4)cc3)co2)cc1", "note": "[reference compound, 1-[4-(4-{2-[2-(4-Trifluoromethyl-phenyl)-vinyl]-oxazol-4-ylmethoxy}-phenyl)-butyl]-1H-[1,2,3]triazole, reference compound]", "values": [{"measurement": "n-fold increase of cells arrested in first cell cycle", "setting": "QG56 cells", "result": 17.2, "unit": "n-fold"}]}]}
